Results taken from patent publication US6452005B1, “JAK-3 inhibitors for treating allergic disorders” (Parker Hughes Institute, priority 1999, dated 2002).

Assays:
recombinant JAK1 = biological target: T1, recombinant JAK1 (Homo sapiens, UniProt P23458); test: Immune complex kinase assay, recombinant JAK1; type: biochemical; conditions: FIG. 6C & D
T1 construct: made in house; host or cells: Sf21 insect cells, baculovirus
From the text: (§1) Immune Complex Kinase Assays.

RBL-2H3 cells = test: Calcium mobilization assay (Fluo-3); type: cell-based, rat
Procedure: IgE sensitized RBL-2H3 cells were loaded with 1 μM Fluo-3 for 1 hour as described in the Examples below. The cells were then challenged with DNP-BSA or ionomycin and change in fluorescence was recorded. To study the effect of WHI-P131 on intracellular calcium mobilization, IgE-sensitized and Fluo-3 loaded RBL-2H3 cells were incubated with 3 μM, 12 μM or 30 μM WHI-P131 for 5 minutes prior to challenge with DNP-BSA or ionomycin.
Calcium Measurement: Calcium mobilization assay was performed as described earlier (Zhu et. al., 1998, Clin. Cancer Res., 4:2967-2976). RBL-2H3 cells were loaded with Fluo-3 and stimulated with DNP-BSA in presence and absence of WJI-P131 as described above. Calcium response was measured by an calcium imaging device (Universal Imaging Co., West Chester, Pa.) mounted onto a inverted microscope. The exitation wavelength was 485 nm and the emission wavelength for detection was 535 nm. The fluorescent image of an individual cell was acquired by a CCD72 video camera (Dage-MTI Inc., Michigan City, Ill.) at the speed of 1 frame/s and digitized by computer.

BALB/c mice = test: Passive systemic anaphylaxis model; type: in vivo; conditions: pretreated mice
Procedure: FIG. 14B is a photograph showing plasma extravasation during systemic anaphylaxis, evaluated as described in the Examples.
FIG. 14C is a photograph showing results of histopathologic evaluation of mast cell degranulation. Ears were removed 1 hour after the antigen challenge from vehicle treated as well as WHI-P131 treated mice. Formalin-fixed thin sections (3-5 μm) of ears from were stained with Avidin-FITC.
FIG. 4D is a graph showing blood histamine levels of sensitized mice analyzed after antigen challenge. Blood was collected by retro-orbital bleeding and histamine levels were measured by ELISA. Histamine levels are expressed as nM. The histamine levels in the blood of PBS treated mice and IgE/antigen stimulated mice was 493±131 and 7527±2102 nM respectively. The results are the mean±SEM values; n=3.
To induce passive systemic anaphylaxis, BALB/c mice were sensitized with […] DNP-IgE intravenously. At 24 hours DNP-BSA (2 mg) was administered intravenously with 0.5% Evans blue (200 μl). For assessment of vascular leak, animals were sacrificed 30 minutes after the antigen challenge and their foot pads were examined for blue coloration. Histamine levels in plasma were measured 5 minutes after the antigen challenge. […] For histopathologic evaluation of tissue mast cell degranulation, ears of mice were removed 1 hour after the DNP-BSA injection and fixed in 10 percent buffered formalin. Processed thin sections (3-5 μm) were stained with Avidin-FITC (6.25 μg/ml) for 2 hours, washed with PBS to remove unbound dye and then mounted in buffered glycerol, 30 mM triethylenediamine, pH 8.6 (Malaviya et. al., 1994, J. Clin. Invest., 93:1645-1653). In the murine model for antigen induced active anaphylaxis, mice were sensitized with 2 mg BSA in 200 μl aluminum hydroxide gel (Reheis Inc., Berkeley, N.J.). Ten days later anaphylactic shock was induced by the i.v. injection of the animals with 200 μg BSA.

SYK = biological target: T2, SYK (Homo sapiens, UniProt P43405); test: Immune complex kinase assay, SYK from Sf21 cells; type: biochemical; conditions: concentrations as high as 350 μM
T2 construct: made in house; host or cells: Sf21 insect cells, baculovirus
From the text: as §1

RBL-2H3 mast cells = test: IgE/antigen-induced degranulation and mediator release; type: cell-based, rat; conditions: 1 h preincubation, DNP-BSA challenge; at ≧30 μM
From the text: Vehicle treated control RBL-2H3 cells released 45.1±3.1% of their hexosaminidase contents after DNP-BSA challenge. […] Vehicle treated control cells released 11.3±1.3 pg LTC4, and 160±33.0 pg TNFα/10^6 mast cells. The results on LTC4 and TNFα release are expressed as percent of maximum control release from vehicle treated control mast cells. The data points represent the mean±SEM values obtained from 3-6 independent experiments. […] *P<0.05 and **P<0.0001 compared to control as determined by Student's t test.
Supernatants were removed and saved.

recombinant JAK2 = recombinant JAK2 (Homo sapiens, UniProt O60674); test: Immune complex kinase assay, recombinant JAK2; conditions: FIG. 6C & D
Procedure: In FIGS. 6A-6D, JAK3, JAK1, and JAK2 were immunoprecipitated from Sf21 insect ovary cells transfected with the appropriate baculovirus expression vectors and treated with WHI-P131, then subjected to in vitro kinase assays as described in the Examples below. The enzymatic activity of JAKs was determined by measuring autophosphorylation in a 10 minute kinase assay, as described in the Examples below. The kinase activity (KA) levels were expressed as percentage of baseline activity (%CON).
Immune Complex Kinase Assays. Sf21 (IPLB-SF21-AE) cells (Vassilev et. al., 1999, J. Biol. Chem,. 274:1646-1656) derived from the ovarian tissue of the fall armyworm Spodotera frugiperda, were obtained from Invitrogen and maintained at 26-28° C. in Grace's insect cell medium supplemented with 10% FBS and 1.0% antibiotic/antimycotic (GIBCO-BRL). Stock cells were maintained in suspension at 0.2-1.6×10^6/ml in 600 ml total culture volume in 1 L Bellco spinner flasks at 60-90 rpm. Cell viability was maintained at 95-100% as determined by trypan blue dye exclusion.
Sf21 cells were infected with a baculovirus expression vector for BTK, SYK, JAK1, JAK2, or JAK3, as previously reported (Mahajan et. al., 1999, J. Biol. Chem., 274:1646-1656). […]

[1] = test system: JAK3-dependent STAT activation; test: EMSA, IL-2 triggered STAT activation in 32Dc11/IL2Rβ cells; type: cell-based
Procedure: Electrophoretic Mobility Shift Assays (EMSAs). EMSAs were performed to examine the effects of dimethoxyquinazoline compounds on cytokine-induced STAT activation (Goodman et. al., 1998). […] Cells were collected after 15 minutes and resuspended in lysis buffer (100 mM Tris-HCl pH 8.0, 0.5% NP-40, 10% glycerol, […], 0.1 mM NaVO3, 50 mM NaF, 150 mM NaCl, 1 mM DTT, 3 μg/ml Aprotinin, 2 μg/ml Pepstatin A, 1 μg/ml Leupeptin and 0.2 mM PMSF). Lysates were precleared by centrifugation for 30 min. Cell extracts (approximately 10 μg) were incubated with 2 μg of poly(dI-dC) for 30 minutes, followed by a 30 minutes incubation with 1ng of poly. nucleotide kinase-^32P labeled double stranded DNA oligonucleotide representing the IRF-1 STAT DNA binding sequence (Santa Cruz Biotechnology, Santa Cruz, Calif.). Samples were resolved by non-denaturing PAGE and visualized by autoradiography.

recombinant JAK2, sequence (O60674 whole entry): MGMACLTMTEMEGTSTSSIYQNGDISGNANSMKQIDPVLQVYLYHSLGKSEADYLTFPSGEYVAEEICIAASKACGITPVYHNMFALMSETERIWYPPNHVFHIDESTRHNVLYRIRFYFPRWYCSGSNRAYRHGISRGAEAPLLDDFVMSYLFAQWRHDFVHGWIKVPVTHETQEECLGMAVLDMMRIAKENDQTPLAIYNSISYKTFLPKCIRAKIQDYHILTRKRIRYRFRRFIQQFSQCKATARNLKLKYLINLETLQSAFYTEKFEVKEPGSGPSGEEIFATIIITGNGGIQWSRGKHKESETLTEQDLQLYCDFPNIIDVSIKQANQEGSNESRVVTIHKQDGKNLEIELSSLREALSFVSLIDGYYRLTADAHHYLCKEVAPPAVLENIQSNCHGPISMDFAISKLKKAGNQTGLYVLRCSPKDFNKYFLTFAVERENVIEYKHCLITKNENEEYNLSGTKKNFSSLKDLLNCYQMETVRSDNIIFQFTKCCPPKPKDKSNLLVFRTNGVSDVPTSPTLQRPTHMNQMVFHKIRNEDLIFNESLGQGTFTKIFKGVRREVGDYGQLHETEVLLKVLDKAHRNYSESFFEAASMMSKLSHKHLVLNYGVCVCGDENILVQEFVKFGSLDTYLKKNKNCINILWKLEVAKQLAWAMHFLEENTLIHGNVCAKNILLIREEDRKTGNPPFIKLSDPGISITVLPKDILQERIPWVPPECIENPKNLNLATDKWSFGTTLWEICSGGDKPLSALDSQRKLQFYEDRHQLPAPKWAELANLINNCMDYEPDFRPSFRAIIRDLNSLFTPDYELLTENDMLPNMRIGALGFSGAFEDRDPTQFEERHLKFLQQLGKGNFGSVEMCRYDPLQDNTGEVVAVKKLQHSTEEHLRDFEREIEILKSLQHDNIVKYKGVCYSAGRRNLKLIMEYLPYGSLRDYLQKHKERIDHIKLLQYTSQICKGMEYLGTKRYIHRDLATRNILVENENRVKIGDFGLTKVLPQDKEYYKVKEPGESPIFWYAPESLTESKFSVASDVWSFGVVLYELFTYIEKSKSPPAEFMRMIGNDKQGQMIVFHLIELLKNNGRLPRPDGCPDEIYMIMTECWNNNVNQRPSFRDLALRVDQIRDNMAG
T1 sequence (P23458 whole entry): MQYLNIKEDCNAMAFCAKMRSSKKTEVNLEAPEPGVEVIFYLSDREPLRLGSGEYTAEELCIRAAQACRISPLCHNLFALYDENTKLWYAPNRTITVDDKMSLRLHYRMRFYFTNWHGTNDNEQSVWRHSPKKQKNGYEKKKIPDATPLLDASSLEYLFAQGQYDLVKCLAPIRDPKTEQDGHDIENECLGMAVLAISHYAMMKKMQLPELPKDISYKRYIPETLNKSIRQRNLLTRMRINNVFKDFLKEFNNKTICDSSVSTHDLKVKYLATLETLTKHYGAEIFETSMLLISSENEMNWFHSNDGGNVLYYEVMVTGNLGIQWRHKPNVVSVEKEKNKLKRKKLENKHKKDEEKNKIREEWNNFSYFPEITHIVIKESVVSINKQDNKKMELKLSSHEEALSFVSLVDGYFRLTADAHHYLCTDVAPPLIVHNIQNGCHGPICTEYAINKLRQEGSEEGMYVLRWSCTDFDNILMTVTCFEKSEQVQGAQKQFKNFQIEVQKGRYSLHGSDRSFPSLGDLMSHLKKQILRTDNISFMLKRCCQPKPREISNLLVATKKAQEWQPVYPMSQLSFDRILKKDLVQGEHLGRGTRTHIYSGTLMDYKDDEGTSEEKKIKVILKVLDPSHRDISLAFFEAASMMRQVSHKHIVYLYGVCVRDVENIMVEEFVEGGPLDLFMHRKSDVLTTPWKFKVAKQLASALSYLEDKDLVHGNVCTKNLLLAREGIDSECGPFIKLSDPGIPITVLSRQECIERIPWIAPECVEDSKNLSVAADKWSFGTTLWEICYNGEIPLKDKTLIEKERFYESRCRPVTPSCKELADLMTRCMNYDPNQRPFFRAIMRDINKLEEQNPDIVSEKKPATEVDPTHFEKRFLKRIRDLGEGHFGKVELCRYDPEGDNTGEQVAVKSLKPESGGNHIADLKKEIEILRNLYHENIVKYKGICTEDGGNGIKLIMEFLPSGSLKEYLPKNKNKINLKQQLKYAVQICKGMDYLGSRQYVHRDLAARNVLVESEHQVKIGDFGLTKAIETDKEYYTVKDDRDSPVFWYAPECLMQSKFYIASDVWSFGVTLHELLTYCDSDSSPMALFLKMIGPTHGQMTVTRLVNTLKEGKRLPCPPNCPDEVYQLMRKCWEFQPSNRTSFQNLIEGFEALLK

## COc1cc2ncnc(Nc3ccc(O)cc3)c2cc1OC [WHI-P131, 4-(4′-Hydroxylphenyl)-amino-6,7-dimethoxyquinazoline]
Recombinant JAK1
  inhibitory activity against recombinant JAK1: did not exhibit any detectable inhibitory activity
RBL-2H3 cells
  ionomycin induced nonspecific calcium responses: not affected
RBL-2H3 cells; 30 μM, IgE-sensitized, Fluo-3 loaded
  calcium response to DNP-BSA: abrogated
BALB/c mice; 5 minutes after antigen challenge
  plasma histamine response: substantially reduced
BALB/c mice; 30 min after antigen challenge
  blue coloring of foot pads (plasma exudation): no significant blue coloring
BALB/c mice; ears, after IgE/antigen challenge
  fluorescence intensity of avidin-FITC stained tissue mast cells (degranulation): no reduction in fluorescence intensity
SYK
  effect on enzymatic activity of SYK: did not affect
RBL-2H3 mast cells
  LTC4 release: near to complete inhibition
  TNFα release: near to complete inhibition
  β-hexosaminidase release (degranulation): near to complete inhibition
Recombinant JAK2
  inhibitory activity against recombinant JAK2: did not exhibit any detectable inhibitory activity
[1]; 10 μg/ml, 32Dc11/IL2Rβ cells
  JAK3-dependent STAT activation after stimulation with IL-2: inhibited
[1]; 100 μg/ml in FIG. 6E legend
  IL-2 triggered JAK-3-dependent STAT activation: inhibited
